From ChEMBL document CHEMBL2424558, “Synthesis and biological evaluation of novel quinazoline derivatives obtained by Suzuki CC coupling” (2013)
Values after ≈ are worked out from the molar mass of the structure shown.

Experiments:
Type in all cases: functional
Bacillus cereus = assay: Antibacterial activity against Bacillus cereus MTCC 430
Candida albicans = assay: Antifungal activity against Candida albicans MTCC 183; details: for MIC: Candida albicans, MTCC 183
Klebsiella pneumoniae = assay: Antibacterial activity against Klebsiella pneumoniae MTCC 109
Staphylococcus aureus = assay: Antibacterial activity against Staphylococcus aureus MTCC 96
Aspergillus niger = assay: Antifungal activity against Aspergillus niger MTCC 282; details: for MIC: Aspergillus niger, MTCC 282
Escherichia coli = assay: Antibacterial activity against Escherichia coli MTCC 739
Pseudomonas aeruginosa = assay: Antibacterial activity against Pseudomonas aeruginosa MTCC 741
[1] = system: Mycobacterium tuberculosis; assay: Antimycobacterial activity against Mycobacterium tuberculosis H37Rv; details: for MIC: Mycobacterium tuberculosis, H37Rv
[2] = Klebsiella pneumoniae, MTCC 109
[3] = Pseudomonas aeruginosa, MTCC 741

Compound	inhibition zone (IZ) (Bacillus cereus)	MIC (Bacillus cereus; Bacillus cereus, MTCC 430)	inhibition zone (IZ) (Candida albicans)	MIC (Candida albicans)	inhibition zone (IZ) (Klebsiella pneumoniae)	MIC (Klebsiella pneumoniae; [2])	inhibition zone (IZ) (Staphylococcus aureus)	MIC (Staphylococcus aureus; Staphylococcus aureus, MTCC 96)	inhibition zone (IZ) (Aspergillus niger)	MIC (Aspergillus niger)	inhibition zone (IZ) (Escherichia coli)	MIC (Escherichia coli; Escherichia coli, MTCC 739)	inhibition zone (IZ) (Pseudomonas aeruginosa)	MIC (Pseudomonas aeruginosa; [3])	inhibition (INH) [1]	MIC [1]	other results
COc1ccc(NC(=O)Nc2ccc(-c3nc(Oc4cccc(C)c4)c4ccccc4n3)cc2)cc1	22 mm	50 µg/mL (≈ 105 µM)	25 mm	25 µg/mL (≈ 52.5 µM)	26 mm	200 µg/mL (≈ 420 µM)	23 mm	25 µg/mL (≈ 52.5 µM)	23 mm	50 µg/mL (≈ 105 µM)	24 mm	200 µg/mL (≈ 420 µM)	26 mm	25 µg/mL (≈ 52.5 µM)	94%	62.5 µg/mL (≈ 131 µM)	
Cc1cccc(Oc2nc(-c3ccc(NC(=S)Nc4ccc(Cl)cc4)cc3)nc3ccccc23)c1	27 mm	50 µg/mL (≈ 101 µM)	28 mm	25 µg/mL (≈ 50.3 µM)	27 mm	25 µg/mL (≈ 50.3 µM)	24 mm	12.5 µg/mL (≈ 25.1 µM)	24 mm	12.5 µg/mL (≈ 25.1 µM)	27 mm	25 µg/mL (≈ 50.3 µM)	26 mm	12.5 µg/mL (≈ 25.1 µM)	98%	25 µg/mL (≈ 50.3 µM)	
NC(=O)c1cnccn1 [PYRAZINAMIDE]															99%	6.25 µg/mL (≈ 50.8 µM)	
CC[C@@H](CO)NCCN[C@@H](CC)CO [ETHAMBUTOL]															99%	3.12 µg/mL (≈ 15.3 µM)	
CO[C@H]1/C=C/O[C@@]2(C)Oc3c(C)c(O)c4c(O)c(c(/C=N/N5CCN(C)CC5)c(O)c4c3C2=O)NC(=O)/C(C)=C\C=C\[C@H](C)[C@H](O)[C@@H](C)[C@@H](O)[C@@H](C)[C@H](OC(C)=O)[C@@H]1C [RIFAMPIN]															99%	0.25 µg/mL (≈ 0.304 µM)	
GENTAMICIN	30 mm				30 mm												MIC (Bacillus cereus): 6.25 µg/mL; MIC (Klebsiella pneumoniae): 25 µg/mL; MIC (Staphylococcus aureus): 6.25 µg/mL; MIC (Escherichia coli): 12.5 µg/mL; MIC (Pseudomonas aeruginosa): 12.5 µg/mL
Cc1ccc(NC(=S)Nc2ccc(-c3nc(Oc4cccc(C)c4)c4ccccc4n3)cc2)cc1	21 mm	200 µg/mL (≈ 420 µM)	23 mm	50 µg/mL (≈ 105 µM)	21 mm	50 µg/mL (≈ 105 µM)	22 mm	50 µg/mL (≈ 105 µM)	18 mm	200 µg/mL (≈ 420 µM)	23 mm	50 µg/mL (≈ 105 µM)	23 mm	50 µg/mL (≈ 105 µM)	94%	100 µg/mL (≈ 210 µM)	
Cc1cccc(Oc2nc(-c3ccc(NC(=O)Nc4ccccc4)cc3)nc3ccccc23)c1	20 mm	250 µg/mL (≈ 560 µM)	23 mm	250 µg/mL (≈ 560 µM)	19 mm	100 µg/mL (≈ 224 µM)	22 mm	200 µg/mL (≈ 448 µM)	22 mm	200 µg/mL (≈ 448 µM)	23 mm	100 µg/mL (≈ 224 µM)	21 mm	62.5 µg/mL (≈ 140 µM)	95%	250 µg/mL (≈ 560 µM)	
Cc1cccc(Oc2nc(-c3ccc(NC(=O)Nc4ccc(Cl)cc4)cc3)nc3ccccc23)c1	24 mm	100 µg/mL (≈ 208 µM)	21 mm	100 µg/mL (≈ 208 µM)	23 mm	62.5 µg/mL (≈ 130 µM)	25 mm	50 µg/mL (≈ 104 µM)	26 mm	200 µg/mL (≈ 416 µM)	27 mm	62.5 µg/mL (≈ 130 µM)	24 mm	50 µg/mL (≈ 104 µM)	98%	100 µg/mL (≈ 208 µM)	
Cc1cccc(Oc2nc(-c3ccc(NC(=S)Nc4ccc(F)cc4)cc3)nc3ccccc23)c1	27 mm	200 µg/mL (≈ 416 µM)	25 mm	6.25 µg/mL (≈ 13 µM)	24 mm	100 µg/mL (≈ 208 µM)	24 mm	25 µg/mL (≈ 52 µM)	22 mm	50 µg/mL (≈ 104 µM)	27 mm	25 µg/mL (≈ 52 µM)	25 mm	50 µg/mL (≈ 104 µM)	96%	50 µg/mL (≈ 104 µM)	
OC(Cn1cncn1)(Cn1cncn1)c1ccc(F)cc1F [FLUCONAZOLE]			31 mm	12.5 µg/mL (≈ 40.8 µM)					30 mm	6.25 µg/mL (≈ 20.4 µM)							
CCOc1ccc(NC(=O)Nc2ccc(-c3nc(Oc4cccc(C)c4)c4ccccc4n3)cc2)cc1	24 mm	25 µg/mL (≈ 51 µM)	27 mm	50 µg/mL (≈ 102 µM)	25 mm	25 µg/mL (≈ 51 µM)	22 mm	50 µg/mL (≈ 102 µM)	23 mm	50 µg/mL (≈ 102 µM)	24 mm	200 µg/mL (≈ 408 µM)	26 mm	50 µg/mL (≈ 102 µM)	96%	100 µg/mL (≈ 204 µM)	
Cc1cccc(Oc2nc(-c3ccc(NC(=O)Nc4ccc(Br)cc4)cc3)nc3ccccc23)c1	28 mm	12.5 µg/mL (≈ 23.8 µM)	24 mm	50 µg/mL (≈ 95.2 µM)	24 mm	50 µg/mL (≈ 95.2 µM)	24 mm	12.5 µg/mL (≈ 23.8 µM)	22 mm	62.5 µg/mL (≈ 119 µM)	27 mm	62.5 µg/mL (≈ 119 µM)	25 mm	25 µg/mL (≈ 47.6 µM)	99%	25 µg/mL (≈ 47.6 µM)	
Cc1cccc(Oc2nc(-c3ccc(NC(=S)Nc4ccc(Br)cc4)cc3)nc3ccccc23)c1	26 mm	12.5 µg/mL (≈ 23.1 µM)	27 mm	12.5 µg/mL (≈ 23.1 µM)	27 mm	12.5 µg/mL (≈ 23.1 µM)	29 mm	6.25 µg/mL (≈ 11.5 µM)	23 mm	25 µg/mL (≈ 46.2 µM)	25 mm	50 µg/mL (≈ 92.3 µM)	25 mm	25 µg/mL (≈ 46.2 µM)	99%	12.5 µg/mL (≈ 23.1 µM)	
Cc1cccc(Oc2nc(-c3ccc(NC(=O)Nc4ccc(F)cc4)cc3)nc3ccccc23)c1	21 mm	100 µg/mL (≈ 215 µM)	26 mm	12.5 µg/mL (≈ 26.9 µM)	21 mm	200 µg/mL (≈ 431 µM)	22 mm	200 µg/mL (≈ 431 µM)	23 mm	25 µg/mL (≈ 53.8 µM)	23 mm	62.5 µg/mL (≈ 135 µM)	23 mm	100 µg/mL (≈ 215 µM)	97%	62.5 µg/mL (≈ 135 µM)	
NNC(=O)c1ccncc1 [ISONIAZID]																0.2 µg/mL (≈ 1.46 µM)	
CCOc1ccc(NC(=S)Nc2ccc(-c3nc(Oc4cccc(C)c4)c4ccccc4n3)cc2)cc1	19 mm	100 µg/mL (≈ 197 µM)	22 mm	50 µg/mL (≈ 98.7 µM)	23 mm	25 µg/mL (≈ 49.3 µM)	22 mm	12.5 µg/mL (≈ 24.7 µM)	26 mm	25 µg/mL (≈ 49.3 µM)	24 mm	62.5 µg/mL (≈ 123 µM)	26 mm	12.5 µg/mL (≈ 24.7 µM)	95%	200 µg/mL (≈ 395 µM)	
Cc1cccc(Oc2nc(-c3ccc(NC(=S)Nc4ccccc4)cc3)nc3ccccc23)c1	24 mm	50 µg/mL (≈ 108 µM)	25 mm	200 µg/mL (≈ 432 µM)	22 mm	200 µg/mL (≈ 432 µM)	27 mm	200 µg/mL (≈ 432 µM)	23 mm	50 µg/mL (≈ 108 µM)	26 mm	250 µg/mL (≈ 540 µM)	25 mm	50 µg/mL (≈ 108 µM)	95%	100 µg/mL (≈ 216 µM)	
COc1ccc(NC(=S)Nc2ccc(-c3nc(Oc4cccc(C)c4)c4ccccc4n3)cc2)cc1	24 mm	50 µg/mL (≈ 102 µM)	28 mm	12.5 µg/mL (≈ 25.4 µM)	24 mm	50 µg/mL (≈ 102 µM)	25 mm	12.5 µg/mL (≈ 25.4 µM)	21 mm	50 µg/mL (≈ 102 µM)	27 mm	25 µg/mL (≈ 50.8 µM)	27 mm	25 µg/mL (≈ 50.8 µM)	97%	100 µg/mL (≈ 203 µM)	
CC1(C)S[C@@H]2[C@H](NC(=O)[C@H](N)c3ccccc3)C(=O)N2[C@H]1C(=O)O [AMPICILLIN]	28 mm	12.5 µg/mL (≈ 35.8 µM)			33 mm	25 µg/mL (≈ 71.5 µM)	30 mm	12.5 µg/mL (≈ 35.8 µM)			31 mm	6.25 µg/mL (≈ 17.9 µM)	28 mm	25 µg/mL (≈ 71.5 µM)			
Cc1ccc(NC(=O)Nc2ccc(-c3nc(Oc4cccc(C)c4)c4ccccc4n3)cc2)cc1	24 mm	250 µg/mL (≈ 543 µM)	24 mm	50 µg/mL (≈ 109 µM)	24 mm	50 µg/mL (≈ 109 µM)	23 mm	100 µg/mL (≈ 217 µM)	21 mm	200 µg/mL (≈ 434 µM)	24 mm	25 µg/mL (≈ 54.3 µM)	27 mm	25 µg/mL (≈ 54.3 µM)	95%	200 µg/mL (≈ 434 µM)	
